Structures are written as SMILES. Active and inactive are the calls of the source.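 How the source made its calls: active means inhibition of at least 30% at one or more tested concentrations; inactive means inhibition below 30% at every dose.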

A short description of this experiment: antiviral protection against BTV-induced cell death – arbovirus, BSR cells, confirmation (AID 1250). To be noted: BSR cells, Bluetongue virus CPE, ATP luminescence, 72 h; at 20 µM (top of the series).
As for `CC1CC(C)CN(c2nc(NCc3ccco3)nc(N)c2[N+](=O)[O-])C1` (stereo not given), the CPE inhibition is 25.5% (inactive).

On to `CC(C)CC1=NN2C(=N)/C(=C\c3coc4ccccc4c3=O)C(=O)N=C2S1`, for which the CPE inhibition was 13.5% (inactive). The same measure for `CSc1nc(-c2ccc(Cl)cc2Cl)[nH]c(=O)c1C#N`: 24.3% (inactive); for `Cc1nc2c(C(=O)NCCC(C)C)c[nH]n2c(=O)c1Cl`: 9.83% (inactive). The same measure for `C=CCn1c(N)c(C(=O)NCc2cccnc2)sc1=S`: 2.55% (inactive).

As to `O=C(O)c1csc(N/N=C/c2ccc(Br)cc2)n1`, the CPE inhibition is 8.09% (inactive).

As for `CN(C)C(=O)COC(=O)c1ccccc1Nc1ccc(SC(F)F)cc1`, the CPE inhibition was 23% (inactive). Next, `CCSc1nnc(NC(=O)c2ccc(C)cc2)s1`: 5.39% (inactive). On to `Cc1ccc(O)c(-c2cc(C(=O)Nc3ccc(S(=O)(=O)Nc4nc(C)cc(C)n4)cc3)[nH]n2)c1`, for which the CPE inhibition was 21.8% (inactive). On to `CCOC(=O)c1c(NC(=O)CSc2ccccc2C(=O)O)sc(C)c1C`, for which the CPE inhibition is 19.3% (inactive). Next, `COc1cc(C2N=C(c3ccccc3)NO2)cc(Br)c1O` (stereo not given): 18.4% (inactive); `COc1ccc2nc(NC(=O)C3=NN(c4ccccc4)C(=O)CC3)sc2c1`: -2.13% (inactive); `COc1ccc2c(C)cc(Sc3nnnn3-c3ccccc3)nc2c1`: 20.9% (inactive). Next, `O=C(COc1ccc(Cl)cc1)Nc1ncc([N+](=O)[O-])s1`: 25.3% (inactive); `Cc1nn(-c2ccccc2)c2nc(C(F)(F)F)[nH]c(=O)c12`: 20% (inactive); `CCCn1c(N)c(C(=O)CSc2nc3ccccc3c(=O)n2-c2ccc(OC)cc2)c(=O)[nH]c1=O`: 1.41% (inactive). Next, `CCOC(=O)c1sc(NC(=S)NC(=O)c2cccc(Cl)c2)c(C(=O)OCC)c1C`: 1.04% (inactive); `COC(=O)[C@H](Cc1ccccc1)NC(=O)O[C@@H]1C(=O)c2cc(OC)ccc2O[C@H]1c1ccc(OC)c(Br)c1`: 13.7% (inactive); `CCc1nnc(NC(=O)c2cc3ccccc3oc2=O)s1`: -0.17% (inactive). Take `COc1cccc(C2=CC(c3ccc(C)cc3)n3ncnc3N2)c1` (stereo not given): the CPE inhibition was 22.6% (inactive). Next, `Cn1cc(CN2CCN(c3ccccc3)CC2)c2ccccc21`: 12% (inactive); `CC(C)(C)C1CCc2c(sc(NC(=O)C3CC=CCC3C(=O)O)c2C#N)C1` (stereo not given): 26.8% (inactive); `O=Cc1ccc(OCc2ccccn2)cc1`: 2.77% (inactive). Consider `Cc1ccc(C(=O)c2coc3cc([N+](=O)[O-])c(O)c([N+](=O)[O-])c23)cc1`, for which the CPE inhibition is 18.6% (inactive). Next, `O=C(CSc1ncn[nH]1)Nc1nc(-c2ccccc2)ns1`: 6.55% (inactive); `CCCc1c(OCCCCc2nn[nH]n2)ccc(C(C)=O)c1O`: 12.8% (inactive). With `CCc1ccc(C(=O)Nc2ccc(S(=O)(=O)Nc3nc(C)cc(C)n3)cc2)o1`, the CPE inhibition is 24.5% (inactive). On to `CCOC(=O)c1c(NC(=O)CSc2ncn[nH]2)sc(C)c1C`, for which the CPE inhibition was 21% (inactive). Turning to `Cc1cccc(N2CCN(C(=O)C3COc4ccccc4O3)CC2)c1C` (stereo not given), the CPE inhibition was 19.7% (inactive). Regarding `COc1ccc(S(=O)(=O)N/N=C(/C)c2cccc(NC(=O)c3ccccc3Cl)c2)cc1`, the CPE inhibition was 15% (inactive).

For the compound `Cc1ccc(C)c(Cn2nnc3c(=O)[nH]c(C(=O)Nc4ccc(F)cc4)nc32)c1`, the CPE inhibition is 11.9% (inactive).

Turning to `Cc1[nH]c2ccccc2c1C1=CCNCC1`, the CPE inhibition is 3.08% (inactive). Regarding `O=c1c(-c2ccccc2)c[nH]n1-c1cccc([N+](=O)[O-])c1`, the CPE inhibition was 14.9% (inactive).

In the case of `N=C1/C(=C/c2cccs2)C(=O)N=C2SN=C(SCc3ccccc3)N12`, the CPE inhibition is 29.3% (inactive). The same measure for `COCCN1C(=O)/C(=C/c2ccc(Oc3ccc([N+](=O)[O-])cn3)c(OC)c2)SC1=Nc1ccccc1`: 25.6% (inactive); for `COc1ccccc1NC(=O)CN1CCC(n2c(C)nc3cc(F)ccc32)CC1`: 23.7% (inactive); for `CCCC(=O)Oc1ccccc1C1SCc2cc(C)c(C)cc2CS1`: 6.38% (inactive). On to `CC1=NN2C(=N)/C(=C\c3ccc(SCc4ccccc4)o3)C(=O)N=C2S1`, for which the CPE inhibition was 21.1% (inactive). For `Cc1ccc(-n2cccc2/C=C2/C(=N)N3C(=NC2=O)SN=C3S(C)(=O)=O)cc1`, the CPE inhibition is 12.1% (inactive). The same measure for `O=C(CSCC(=O)N1CCCCC1)OCC(=O)c1c[nH]c2ccccc12`: -2.4% (inactive).

Regarding `CC1Cc2ccccc2N1C(=O)CSc1ccccc1` (stereo not given), the CPE inhibition was -1.84% (inactive). Next, `O=[N+]([O-])c1cc(/C=N\Nc2nc(-c3ccccc3)cs2)ccc1O`: 26.1% (inactive). For the compound `N#Cc1c2n(c3c(=S)nc[nH]c13)CCCCC2`, the CPE inhibition is 9.66% (inactive). Next, `Cn1c(Oc2ccccc2NCc2cc(Br)ccc2O)cc(=O)n(C)c1=O`: 14.3% (inactive); `Cc1c(Cl)cccc1NC(=O)c1cc(-c2ccccc2O)n[nH]1`: 17.9% (inactive); `N#Cc1c(SCc2cccc(Cl)c2)sc(C(=O)c2ccccc2)c1N`: 25.2% (inactive).

For the compound `CCOC(=O)C1CCCN(Cc2ccccc2Cl)C1` (stereo not given), the CPE inhibition was 6.31% (inactive).

As to `O=C(Nc1c(-c2ccccc2)nc2ccccn12)c1cccs1`, the CPE inhibition is 20.6% (inactive). The same measure for `Cc1ccccc1S(=O)(=O)Nc1ncnc2scc(-c3ccccc3)c12`: 20.4% (inactive); for `CC(=O)Nc1ccc(SCC(=O)N(CCC#N)c2cc(C)cc(C)c2)cc1`: 18% (inactive). Next, `O=C(N/N=C/c1c(O)n(CCc2ccccc2)c(=O)[nH]c1=O)c1ccncc1`: 7.83% (inactive); `C=CCn1c(SCC(=O)Nc2nc3ccccc3s2)nnc1-c1ccccc1O`: 21.1% (inactive); `CCOC(=O)c1ccc(NC(=S)N2CCSC2c2c(F)cc(F)cc2F)cc1` (stereo not given): 11.8% (inactive). The same measure for `CCc1cc2c(=O)c(-c3cscn3)coc2c(CN(C)C)c1O`: 5.92% (inactive); for `O=C(CSCc1ccccc1)Nc1cccc(C(=O)Nc2ccccc2C(=O)O)c1`: 9.16% (inactive); for `C/C(=N\NC(=O)c1c(Cl)c(C)nn1C)c1ccc(NC(=O)c2ccncc2)cc1`: 17.7% (inactive).

Regarding `C=CCNC(=O)c1onc(CSc2ccc(C(C)C)cc2)c1C(=O)O`, the CPE inhibition is 1.33% (inactive).

Take `COc1ccc(F)cc1C(=O)C1CCCN(C(=O)CSc2ccccn2)C1` (stereo not given): the CPE inhibition is 17.6% (inactive).

For the compound `Oc1ccc(F)cc1-c1cc(-c2ccc3c(c2)OCCO3)n[nH]1`, the CPE inhibition was 7.86% (inactive).

As to `Cc1ccccc1CSc1nnc(NC(=O)C2COc3ccccc3O2)s1` (stereo not given), the CPE inhibition is 18.9% (inactive). As for `Cc1cccc(-n2c(=O)c3c4c(sc3n3c(=S)[nH]nc23)CCC4)c1`, the CPE inhibition is 7.97% (inactive). Next, `CC1=C(C#N)C(=O)NC(=O)/C1=C\c1ccc(-c2cc(C)c(C)cc2[N+](=O)[O-])o1`: 4.65% (inactive); `Cc1ccc(Nc2nc(N)c([N+](=O)[O-])c(N3CCOCC3)n2)cc1C`: 11.3% (inactive); `CCOC(=O)c1c(-c2ccc(C)c(C)c2)csc1NC(=O)C1CC=CCC1C(=O)O` (stereo not given): 29.6% (inactive).

In the case of `O=C1NC(=O)/C(=C\c2ccc(Oc3ccc([N+](=O)[O-])cn3)cc2)S1`, the CPE inhibition was 12.8% (inactive). Next, `COc1ccc(OC)c(/C=N\NC(=O)CC(=O)NCCc2ccccc2)c1`: -1.6% (inactive); `COc1ccc(C2=CC(c3ccc(C)cc3)n3nnnc3N2)cc1` (stereo not given): 6.94% (inactive); `O=C(c1coc(=O)c(Br)c1)N1CCCc2ccccc21`: 4.27% (inactive).

As for `COc1ccc(-c2noc(-c3cc(C)cc(C)c3)n2)cc1OC`, the CPE inhibition is 10% (inactive). The same measure for `C=CCc1cccc2cc(C(=O)Nc3ccccc3C(=O)O)c(=O)oc12`: 17.4% (inactive); for `Cc1oc(-c2ccccc2Cl)nc1CSCC(=O)N1CCCC1`: 16.4% (inactive). The same measure for `O=C(CSc1nccc(=O)[nH]1)N1N=C2/C(=C/c3ccco3)CCCC2C1c1ccco1` (stereo not given): 21.5% (inactive); for `COc1ccc(Cn2c(C)c(C)c(C#N)c2NC(=O)Nc2cccc(Cl)c2)cc1`: 10.6% (inactive). Next, `COc1cccc(CN=C2Nc3ccccc3CS2)c1`: -0.42% (inactive); `C/C(C/C(C)=C1/SC(=S)NC1=O)=C1\SC(=S)NC1=O`: 6.76% (inactive). As to `O=c1oc(/C=C/c2ccccc2)nc2ccccc12`, the CPE inhibition is 16.6% (inactive). Take `Cc1ccc(-n2nc(C)c(NC(=O)CCl)c2C)cc1`: the CPE inhibition was 13.3% (inactive). For `CCCCn1c(SCC(=O)N2CCN(c3ccccc3)CC2)nc2ccsc2c1=O`, the CPE inhibition was 6.77% (inactive). Next, `Cc1csc(NC(=O)CN2C(=O)C3CC=CCC3C2=O)n1` (stereo not given): 1.87% (inactive). For the compound `CCN(Cc1ccncc1)Cc1c(O)ccc2cc(Br)ccc12`, the CPE inhibition was 8.02% (inactive). Take `COc1ccc(C(=O)Nc2ccccc2C(=O)O)cc1Cl`: the CPE inhibition is 24.1% (inactive).

In the case of `COc1ccc(C2=Nn3c(nnc3-c3ccncc3)SC2)cc1OC`, the CPE inhibition is 20.1% (inactive). Turning to `Cc1ccc(NC(=O)COc2ccc(Br)cc2CO)cc1`, the CPE inhibition was 10.5% (inactive). The same measure for `CS(=O)(=O)C1=NSC2=NC(=O)/C(=C\c3cccn3-c3ccccc3Cl)C(=N)N21`: 8.16% (inactive). Next, `C=CCN(C(=O)c1cccc(N2C(=O)C3CC=CC(C)C3C2=O)c1)c1ccccc1` (stereo not given): 8.5% (inactive).

The values are drawn from PubChem BioAssay AID1250 (SRMLSC, 2008).
